Reference: patent publication US20050182025A1, “Amidinylphenyl compounds and their use as fungicides” (priority 2002, published 2005)

How the values were obtained:
Type in all cases: in vivo
[1] = tested on: Erysiphe graminis f. sp. tritici; experiment: Test A: preventive spray on wheat seedlings, wheat powdery mildew, disease rating; conditions: wheat seedlings sprayed to run-off, inoculated the following day with Erysiphe graminis f. sp. tritici, rated after 7 days at 20° C.; test concentration not given
From the text: General protocol for preparing test suspensions: Test compounds were first dissolved in acetone in an amount equal to 3% of the final volume and then suspended at the desired concentration (in ppm) in acetone and purified water (50/50 mix) containing 250 ppm of the surfactant Trem® 014 (polyhydric alcohol esters). The resulting test suspensions were then used in the following tests. Spraying a 200 ppm test suspension to the point of run-off on the test plants was the equivalent of a rate of 500 g/ha. The test suspension was sprayed to the point of run-off on wheat seedlings. The following day the seedlings were inoculated with a spore dust of Erysiphe graminis f. sp. tritici, (the causal agent of wheat powdery mildew) and incubated in a growth chamber at 20° C. for 7 days, after which disease ratings were made. Results for Tests A-C are given in Table A. In the table, a rating of 100 indicates 100% disease control and a rating of 0 indicates no disease control (relative to the controls). A dash (-) indicates no test results.

Puccinia recondita = experiment: Test B: preventive spray on wheat seedlings, wheat leaf rust, disease rating; conditions: wheat seedlings sprayed to run-off, inoculated the following day with Puccinia recondita, 24 h saturated atmosphere then 6 days at 20° C.; test concentration not given
From the text: (§1) General protocol for preparing test suspensions: Test compounds were first dissolved in acetone in an amount equal to 3% of the final volume and then suspended at the desired concentration (in ppm) in acetone and purified water (50/50 mix) containing 250 ppm of the surfactant Trem® 014 (polyhydric alcohol esters). The resulting test suspensions were then used in the following tests. Spraying a 200 ppm test suspension to the point of run-off on the test plants was the equivalent of a rate of 500 g/ha. The test suspension was sprayed to the point of run-off on wheat seedlings. The following day the seedlings were inoculated with a spore suspension of Puccinia recondita (the causal agent of wheat leaf rust) and incubated in a saturated atmosphere at 20° C. for 24 h, and then moved to a growth chamber at 20° C. for 6 days, after which disease ratings were made. Results for Tests A-C are given in Table A. In the table, a rating of 100 indicates 100% disease control and a rating of 0 indicates no disease control (relative to the controls). A dash (-) indicates no test results.

Septoria nodorum = experiment: Test C: preventive spray on wheat seedlings, Septoria glume blotch, disease rating; conditions: wheat seedlings sprayed to run-off, inoculated the following day with Septoria nodorum, 48 h saturated atmosphere then 9 days at 20° C.; test concentration not given
From the text: as §1, with “Septoria nodorum” for “Puccinia recondita”, “Septoria glume blotch)” for “wheat leaf rust)”, “48” for “24”, “9” for “6”

| SMILES | Test A disease control rating (100 = 100% disease control, 0 = no disease control relative to the controls) [1] [%] | Test B disease control rating (100 = 100% disease control, 0 = no disease control relative to the controls) (Puccinia recondita) [%] | Test C disease control rating (100 = 100% disease control, 0 = no disease control relative to the controls) (Septoria nodorum) [%] |
| --- | --- | --- | --- |
| CC(C)=CCOc1cc(C)c(N=CN(C)C)cc1C [Compound 1, N′-[2,5-Dimethyl-4-[(3-methyl-2-butenyl)-oxy]phenyl]-N,N-dimethylmethanimidamide] | 32 | 100 | 92 |
| CC(C)=CCCC(C)=CCOc1cc(C)c(N=CN(C)C)cc1C [Compound 2] | 95 | 100 | 36 |
| CC(C)=CCCC(C)=CCCC(C)=CCOc1cc(C)c(N=CN(C)C)cc1C [Compound 3] | 0 | 87 | 0 |
| Cc1cc(OCC(=O)C(C)(C)C)c(C)cc1N=CN(C)C [Compound 4] | 0 | 92 | 0 |
| C=CCCCCOc1cc(C)c(N=CN(C)C)cc1C [Compound 5] | 0 | 100 | 89 |
| C=CCCCOc1cc(C)c(N=CN(C)C)cc1C [Compound 6] | 0 | 100 | 60 |
| COC(CCCCOc1cc(C)c(N=CN(C)C)cc1C)(OC)OC [Compound 7] | 0 | 0 | 0 |
| Cc1cc(OCCC(C)C)c(C)cc1N=CN(C)C [Compound 8] | 97 | 100 | 98 |
| C=C(CCCOc1cc(C)c(N=CN(C)C)cc1C)C(C)C [Compound 9] | 98 | 100 | 97 |
| Cc1cc(OCCC(C)CCCC(C)C)c(C)cc1N=CN(C)C (stereo not drawn) [Compound 10] | 97 | 100 | 0 |
| Cc1cc(OCCC(C)CC(C)(C)C)c(C)cc1N=CN(C)C (stereo not drawn) [Compound 11] | 97 | 100 | 100 |
| Cc1cc(OCCC(C)(C)C)c(C)cc1N=CN(C)C [Compound 12] | 97 | 100 | 80 |
| Cc1cc(OCCCC(C)C)c(C)cc1N=CN(C)C [Compound 13, N′-[2,5-Dimethyl-4-[(4-methylpentyl)oxy]-phenyl]-N,N-dimethylmethanimidamide] | 97 | 100 | 100 |
| CC(C)=CCC[C@H](C)CCOc1cc(C)c(N=CN(C)C)cc1C [Compound 14] | 90 | 100 | 0 |
| CC(C)=CCC[C@@H](C)CCOc1cc(C)c(N=CN(C)C)cc1C [Compound 15] | 94 | 100 | 0 |
| Cc1cc(OCCCCCl)c(C)cc1N=CN(C)C [Compound 16] | 88 | 100 | 97 |
| Cc1cc(OCCCCCCl)c(C)cc1N=CN(C)C [Compound 17] | 92 | 100 | 100 |
| CCCCC(C)Oc1cc(C)c(N=CN(C)C)cc1C (stereo not drawn) [Compound 18] | 98 | 100 | 98 |
| CCCCCOc1cc(C)c(N=CN(C)C)cc1C [Compound 19] | 96 | 100 | 100 |
| CCCCCCOc1cc(C)c(N=CN(C)C)cc1C [Compound 20] | 96 | 100 | 99 |
| CCCCCCCOc1cc(C)c(N=CN(C)C)cc1C [Compound 21] | 98 | 100 | 96 |
| CCCCCCCCOc1cc(C)c(N=CN(C)C)cc1C [Compound 22] | 98 | 100 | 88 |
| CCCCCCCCCOc1cc(C)c(N=CN(C)C)cc1C [Compound 23] | 97 | 98 | 13 |
| CCCCCCCCCCOc1cc(C)c(N=CN(C)C)cc1C [Compound 24] | 86 | 23 | 0 |
| CCCCCCCCCCCCOc1cc(C)c(N=CN(C)C)cc1C [Compound 25] | 0 | 90 | 0 |
